Assays:
hepatocytes [1] = test: T3- or GC-1-supplemented diet in wild type mice: hepatocyte proliferation; type: in vivo
Method: (§1) All studies on mice were performed in strict accordance with Guidelines. Eight-week old male C57BL/6 male mice (Jackson/Charles River) were maintained on a standard laboratory basal diet (Test Diet) (n=4), or fed a T3-supplemented diet (4 mg/Kg of diet, Sigma Chemicals, St. Louis Mo.) (n=4). GC-1 was administered to the eight week-old male C57BL/6 male mice either via GC-1-supplemented diet (5 mg/Kg of diet, Medchem Express) for 8 days (n=4) or via daily intraperitoneal injections (IP) of GC-1 dissolved in DMSO (0.3 mg/kg/dose) for 8 days (n=7). As a control group for injections, DMSO alone was injected daily intraperitoneal (IP) for 8 days (n=5). Mice were sacrificed 24 hours after the last injection.
(§2) To label dividing hepatocytes, BrdU (5-bromodeoxyuridine) dissolved in drinking water (1 mg/ml) was given to all animals throughout the experiment period. The animals were given food and water ad libitum with a 12-hour light/dark daily cycle.
(§3) Four micron liver sections were analyzed by immunohistochemistry for β-Catenin (BD Biosciences, San Jose, Calif.), Cyclin-D1 (Thermo-Scientific, Fremont, Calif.) and PCNA (Santa Cruz Biotechnology, Dallas, Tex.). Briefly, formalin-fixed sections were deparaffinized in graded xylene and alcohol. Endogenous peroxidase was inactivated using 3% hydrogen peroxide (Sigma). For β-Catenin, Cyclin-D1 staining, slides were microwaved in Citrate buffer followed by blocking with Superblock for 10 minutes. Sections were then incubated with secondary anti-mouse (for β-catenin) or anti-rabbit (for Cyclin-D1) horseradish peroxidase-conjugated antibody for 30 minutes.
(§4) Bromodeoxyuridine (BrdU) was stained with mouse antibody (Becton Dickinson) as previously described (Fanti et al. (2014) Hepatology 59, 2309-2320). Briefly, tissue sections were deparaffinized, exposed to 0.3% hydrogen peroxide in deionized water for 10 minutes to block endogenous peroxidase, treated with 2N HCl, incubated with trypsin 0.1% for 20 minutes and then with normal goat serum for 20 minutes at room temperature. Sections were then incubated overnight in cold room with anti-BrdU monoclonal antibody, followed by biotinylated goat anti-mouse IgG. DAB kit was then applied, and sections were counterstained with hematoxylin. A small segment of intestine was included from each mouse as a positive control for the staining. For quantification of BrdU staining, at least 10 high power fields (400× or 600×) fields each from at least three biological replicates were counted as indicated in the figures. Statistical analysis was performed as described below.

[2] = tested on: preneoplastic hepatocytes; settings: resistant-hepatocyte model of hepatocarcinogenesis (T3, rats); Ledda-Columbano 2000, Perra 2009; cited from earlier work
hepatocytes [3] = test: Partial hepatectomy after pretreatment with T3 or GC-1 supplemented diet; type: in vivo, mice
Method: as §2
After 7 days of receiving T3 supplemented diet (n=3) or GC-1 diet (n=3) or standard basal mouse chow (n=3), C57BL/6 male mice underwent partial hepatectomy as described previously (Tan et al. (2006) Gastroenterology 131, 1561-1572). Anesthesia was provided with inhaled Isoflurane. The animals were sacrificed 24 hours post hepatectomy, after Isoflurane anesthesia and cervical dislocation. Serum and liver tissue were harvested for further processing.
as §3, §4

liver regeneration = settings: rats; Columbano et al. (2008); cited from earlier work
hepatocytes [4] = test: T3 or GC-1 in LRP5-6 LKO mice and littermate controls; type: in vivo
Method: Eight to 10 week-old LRP5-6-LKO were obtained from breeding homozygous LRP5-6 double floxed mice with albumin-cre transgenic mice as described previously (Yang et al. (2014) Hepatology 60, 964-976). LRP5-6-LKO or sex matched littermate controls were given either T3-supplemented diet (n=4), basal diet (n=3), IP GC-1 (n=3) or IP DMSO (n=3). Mice were sacrificed at 24 hours after the last IP injection.
To label dividing hepatocytes, BrdU (5-bromodeoxyuridine) dissolved in drinking water (1 mg/ml) was given to all animals throughout the experiment period. The animals were given food and water ad libitum with a 12-hour light/dark daily cycle. […]
(§5) Protein extraction from frozen liver tissue and western blot analysis were performed as previously described (Fanti et al., (2014) Hepatology 59, 2309-2320). For protein extraction, a small amount of frozen liver tissue was obtained (over dry ice) and was homogenized using RIPA buffer with protease and phosphatase inhibitor cocktail (Sigma, St. Louis, Mo.). Samples were transferred to a 1.5 ml tube on ice, and spun in cold room centrifuge at 14,000 RPM for 5 minutes. Pellet was then discarded and sample was aliquoted and stored at −80 C for use. Fifty micrograms of the proteins were resolved by sodium dodecyl sulfate-polyacrylamide gel electrophoresis analysis, and transferred to immobilon-polyvinylidene difluoride membranes.
The primary antibodies used were against β-catenin (BD Biosciences); pSer675-β-catenin, pSer552-β-catenin, Active-β-catenin (Cell-Signaling), Cyclin-D1 (Thermo-Scientific), and β-Actin (Sigma). Dilutions of primary antibody were done according to manufacturer recommendations (1:1000 for all except Cyclin-D1 which was 1:200). Horseradish peroxidase-conjugated secondary antibodies used were goat anti-mouse (1:20,000) and goat anti-rabbit (1:10,000) (Millipore). The proteins were detected by Super-Signal West Pico Chemiluminescense Substrate (Thermo Scientific, Rockford Ill.) and visualized by autoradiography. […]

[5] = Serum ALT/bilirubin and hepatic histology after GC-1 or T3; type: in vivo, mice; settings: T3 (4 mg/Kg of diet) or GC-1 (5 mg/Kg of diet) chow 8 days, vs basal diet
Method: as §1

hepatocytes [6] = test: GC-1 or T3 in hepatocyte specific β-catenin knockout mice (β-Cat LKO) and littermate controls; type: in vivo
Method: Eight to 10 week old male hepatocyte specific β-catenin knockout mice (β-cat-LKO) or sex-matched littermate controls obtained from breeding homozygous floxed β-catenin mice and albumin-cre transgenic mice (as described elsewhere (Tan et al., (2006) Gastroenterology 131, 1561-1572)) were given 8 daily IP injections of GC-1 (n=4) or DMSO (n=4) and harvested around 24 hours after the last injection.
as §2, §3, §4, §5
The primary antibodies used were against β-catenin (BD Biosciences); pSer675-β-catenin, pSer552-β-catenin, Active-β-catenin (Cell-Signaling), Cyclin-D1 (Thermo-Scientific), and β-Actin (Sigma). Dilutions of primary antibody were done according to manufacturer recommendations (1:1000 for all except Cyclin-D1 which was 1:200). Horseradish peroxidase-conjugated secondary antibodies used were goat anti-mouse (1:20,000) and goat anti-rabbit (1:10,000) (Millipore). The proteins were detected by Super-Signal West Pico Chemiluminescense Substrate (Thermo Scientific, Rockford Ill.) and visualized by autoradiography.
Total RNA was extracted by homogenizing frozen liver tissues in Trizol reagent (Invitrogen, Carlsbad, Calif.) from GC-1-injected β-Cat LKO (n=4) and littermate control mice (n=4); and GC-1-injected LRP5-6 LKO (n=3) and littermate control mice (n=3). […]

## N[C@@H](Cc1cc(I)c(Oc2ccc(O)c(I)c2)c(I)c1)C(=O)O [T3, Triiodothyronine]
Hepatocytes [1]; T3 (4 mg/Kg of diet) or GC-1 (5 mg/Kg of diet) chow 8 days, vs basal diet
  BrdU incorporation: increased BrdU incorporation
Hepatocytes [1]; T3 diet or IP GC-1, 8 days, vs respective controls
  cyclin-D1 staining in hepatocytes: notably increased cyclin-D1 staining
Hepatocytes [1]; T3 or GC-1 supplemented diet 8 days, vs basal diet
  cyclin-D1 staining in hepatocytes: increased in both groups
Hepatocytes [1]; T3 supplemented diet versus IP GC-1, 8 days, p<0.001 between groups
  BrdU-positive hepatocytes, T3 diet versus IP GC-1: highest proliferation
[2]
  effect on preneoplastic lesions / carcinogenic process: accelerate remodeling of chemically-induced preneoplastic lesions
Hepatocytes [3]; 24 hours after hepatectomy
  nuclear cyclin-D1 immunohistochemistry at 24 hours after hepatectomy: panlobular distribution
Hepatocytes [3]; 24 hours post hepatectomy
  hepatocyte proliferative response post hepatectomy, T3 versus GC-1: significantly greater hepatocyte proliferative response than GC-1
Hepatocytes [3]; diet pretreatment, vs basal diet
  BrdU positive hepatocyte nuclei at 24 hours after hepatectomy: pronounced increase
Hepatocytes [3]; pre-hepatectomy vs 24 hour-post hepatectomy, same animals, all three mice
  increase in hepatocyte proliferation over the 24-hour liver regeneration period: around 2 fold
Hepatocytes [3]; pretreatment livers
  cyclin-D1 immunohistochemistry in resected lobes at time of hepatectomy: expansion of cyclin-D1 positive hepatocytes in the midzonal area
Hepatocytes [3]; seven-day pretreatment, vs basal diet
  BrdU-positive hepatocytes in resected lobes at time of hepatectomy: increased BrdU-positive hepatocytes
Liver regeneration
  liver regeneration after partial hepatectomy: regenerative advantage
  survival in a 90% hepatectomy model: survival advantage
Hepatocytes [4]; LRP5-6-LKO and littermate controls
  pSer675-β-catenin levels, Western blot: comparable or even greater levels
Hepatocytes [4]; LRP5-6 LKO
  pSer552-β-catenin levels, Western blot: modest increase
Hepatocytes [4]; LRP5-6 LKO after T3 or GC-1 feeding vs basal diet
  active β-catenin levels: no notable differences
Hepatocytes [4]; LRP5-6 LKO vs controls
  cyclin-D1 protein and mRNA expression: decreased
  numbers of cyclin-D1-positive hepatocytes (immunohistochemistry): notably decreased
  total β-catenin levels: comparable levels
Hepatocytes [4]; LRP5-6 LKO vs controls, T3 diet 4 mg/Kg of diet or GC-1 0.3 mg/Kg/dose IP 8 days
  number of BrdU-labeled hepatocyte nuclei: notable decrease
Hepatocytes [4]; control mice fed T3 or GC-1 diet for 8 days vs basal diet
  active β-catenin levels in liver lysates: dramatic increase
[5]
  histological changes in the livers: no histological changes
Hepatocytes [6]; β-Cat LKO after T3 or GC-1 treatment
  active β-catenin, Western blot: very faint signal
Hepatocytes [6]; β-Cat LKO vs controls treated with GC-1 or T3
  P-Ser675-β-catenin, Western blot: absent

Source: patent US10780069B2, “Use of GC-1 in transplant related population” (University of Pittsburgh—Of the Commonwealth System of …, priority 2017, dated 2020)
